Common to all, as to format: cell-based
Test [1] has as its system Pseudomonas aeruginosa UC-12120. The test is described as follows: minimum inhibitory concentration (MIC) testing according to CLSI guidelines, Pseudomonas aeruginosa. The following applies: UC-12120, wild-type, labeled as 1091-05, overnight incubation, lower of duplicate values; for MIC: Pseudomonas aeruginosa, UC12120, read-out: AB-MBT: Pseudomonas aeruginosa 1091-05: MIC (MstRcn). On the procedure: (§1) In order to assess the compounds biological activity, the in vitro anti-bacterial activity of selected compounds described in the Examples 1-69 was evaluated by minimum inhibitory concentration (MIC) testing according to Clinical and Laboratory Standards Institute (CLSI, formerly NCCLS) guidelines. See: Clinical and Laboratory Standards Institute. Methods for Dilution Antimicrobial Susceptibility Tests for Bacteria that Grow Aerobically; Approved Standard-Eighth Edition. CLSI document M7-A8 [ISBN 1-56238-689-1]. Clinical and Laboratory Standards Institute, 940 West Valley Road, Suite 1400, Wayne, Pa. 19087-1898 USA, 2006; also Clinical and Laboratory Standards Institute. Performance Standards for Antimicrobial Susceptibility Testing; Twentieth Informational Supplement. CLSI document M100-S20 [ISBN1-56238-716-2]. Clinical and Laboratory Standards Institute.
(§2) The MIC determination is a standard laboratory method for evaluating the antibacterial activity of a compound. The MIC represents the lowest drug concentration that inhibits visible growth of bacteria following overnight incubation. […] Typically, the drug concentration range is broken down into 2-fold increments (e.g. 0.06 μg/mL, 0.12 μg/mL. 0.25 μg/mL, 0.50 μg/mL, 1.0 μg/mL, etc.) and the various drug concentrations are all individually incubated overnight with approximately the same number of bacteria. The MIC is then determined by visually inspecting the drug effect at each concentration, and identifying the lowest drug concentration that has inhibited bacterial growth as compared to the drug free control. Typically, bacteria continue to grow at drug concentrations lower than the MIC and don't grow at concentrations at and above the MIC.
(§3) The MIC values described in Table 1 below were derived from assays wherein each test compound was evaluated in duplicate. In cases where the duplicate values varied by 0-2-fold, the lower of the two values was reported below. Generally speaking, if the duplicate values varied by more than 2-fold, the assay was considered non-valid and was repeated until the variation between duplicate runs was ≦2-fold. In line with the CLSI guidelines referred to above, both control organisms and reference compounds were utilized in each MIC assay to provide proper quality control. MIC values generated with these control organisms and reference compounds were required to fall within a defined range for the assay to be considered valid and be included herein. Those skilled in the art will recognize that MIC values can and do vary from experiment to experiment. Generally speaking, it should be recognized that MIC values often vary +/−2-fold from experiment to experiment. While a single MIC is reported for each compound and each microorganism, the reader should not conclude that each compound was only tested once. Several of the compounds were subjected to multiple tests. The data reported in Table 1 is reflective of the compounds relative activity and different MICs may have been generated on these occasions in light with the guidelines described above.
(§4) The following bacterial strains were used in these MIC determinations:
1) Pseudomonas aeruginosa UC-12120: Wild-type, labeled as 1091-05;

Test [2] deals with Klebsiella pneumoniae 1000-02. Briefly: minimum inhibitory concentration (MIC) testing according to CLSI guidelines, Klebsiella pneumoniae. The following applies: ciprofloxacin-resistant, ESBL-expressing clinical isolate 1000-02, overnight incubation, lower of duplicate values; for MIC: Klebsiella pneumoniae, read-out: AB-MBT: Klebsiella pneumoniae 1000-02: MIC (MstRcnt). Here is the method: as §1, §2, §3, §4
2) Klebsiella pneumoniae: Ciprofloxacin-resistant isolate, expresses extended-spectrum beta-lactamases (ESBL), clinical isolate, labeled as 1000-02;

Test [3] has as its system Acinetobacter baumannii/haemolyticus AB-3167. Briefly: minimum inhibitory concentration (MIC) testing according to CLSI guidelines, Acinetobacter. The following applies: multidrug-resistant clinical isolate AB-3167, overnight incubation, lower of duplicate values; for MIC: Acinetobacter baumannii, read-out: AB-MBT: Acinetobacter baumanii AB-3167: MIC (MstRcnt). Here is the method: as §1, §2, §3, §4
3) Acinetobacter baumannii/haemolyticus: Multidrug-resistant clinical isolate, labeled as AB-3167.

≈ marks a conversion by molar mass, not a printed value.

With `CC(C)(O/N=C(\C(=O)N[C@@H]1C(=O)N(S(=O)(=O)O)[C@@H]1COC(=O)c1cc(-c2cc(=O)c(O)cn2O)no1)c1csc(N)n1)C(=O)O` [Example 13, 2-({[(1Z)-1-(2-amino-1,3-thiazol-4-yl)-2-({(2S,3S)-2-[({[3-(1,5-dihydroxy-4-oxo-1,4-dihydropyridin-2-yl)isoxazol-5-yl]carbonyl}oxy)methyl]-4-oxo-1-sulfoazetidin-3-yl}amino)-2-oxoethylidene]amino}oxy)-2-methylpropanoic acid], the results for the minimum inhibitory concentration (MIC) in test [1], in test [2] and in test [3] were 0.25 µg/mL (≈ 0.372 µM), 0.125 µg/mL (≈ 0.186 µM) and 0.5 µg/mL (≈ 0.745 µM), respectively.

For the compound `CC(C)(O/N=C(\C(=O)N[C@@H]1C(=O)N(S(=O)(=O)O)[C@@H]1CNC(=O)c1cc(-c2cc(=O)c(O)c[nH]2)no1)c1csc(N)n1)C(=O)O` [Example 14, 2-({[(1Z)-1-(2-amino-1,3-thiazol-4-yl)-2-({(2R,3S)-2-[({[3-(5-hydroxy-4-oxo-1,4-dihydropyridin-2-yl)isoxazol-5-yl]carbonyl}amino)methyl]-4-oxo-1-sulfoazetidin-3-yl}amino)-2-oxoethylidene]amino}oxy)-2-methylpropanoic acid], the results for the MIC in test [1], in test [2] and in test [3] were 1 µg/mL (≈ 1.53 µM), 0.5 µg/mL (≈ 0.764 µM) and 0.5 µg/mL (≈ 0.764 µM), respectively.

Consider `CC(C)(O/N=C(\C(=O)N[C@@H]1C(=O)N(S(=O)(=O)[O-])[C@@H]1CNC(=O)c1cc(-c2cc(=O)c(O)cn2O)no1)c1csc(N)n1)C(=O)[O-].[Na+].[Na+]` [Example 15, 2-({[(1Z)-1-(2-amino-1,3-thiazol-4-yl)-2-({(2R,3S)-2-[({[3-(1,5-dihydroxy-4-oxo-1,4-dihydropyridin-2-yl)isoxazol-5-yl]carbonyl}amino)methyl]-4-oxo-1-sulfoazetidin-3-yl}amino)-2-oxoethylidene]amino}oxy)-2-methylpropanoic acid, bis sodium salt], for which, in test [1], the “AB-MBT: Pseudomonas aeruginosa 1091-05: MIC (MstRcn)” value (“AB-MBT … (MstRcn)” for short) stood at 0.250 µg/mL. For the same compound, the “AB-MBT: Klebsiella pneumoniae 1000-02: MIC (MstRcnt)” value in test [2] came out at 1.00 µg/mL. Moreover, the “AB-MBT: Acinetobacter baumanii AB-3167: MIC (MstRcnt)” value in test [3] stood at 0.250 µg/mL.

`CC(C)(O/N=C(\C(=O)N[C@@H]1C(=O)N(S(=O)(=O)O)[C@@H]1CNC(=O)c1cc(-c2cc(=O)c(O)cn2O)on1)c1csc(N)n1)C(=O)O` [Example 16, 2-({[(1Z)-1-(2-amino-1,3-thiazol-4-yl)-2-({(2R,3S)-2-[({[5-(1,5-dihydroxy-4-oxo-1,4-dihydropyridin-2-yl)isoxazol-3-yl]carbonyl}amino)methyl]-4-oxo-1-sulfoazetidin-3-yl}amino)-2-oxoethylidene]amino}oxy)-2-methylpropanoic acid]: the MIC (usually the lowest concentration found to suppress growth) came to 0.25 µg/mL (≈ 0.373 µM) in test [1], 0.5 µg/mL (≈ 0.746 µM) in test [2] and 1 µg/mL (≈ 1.49 µM) in test [3].

For `CC(C)(O/N=C(\C(=O)N[C@@H]1C(=O)N(S(=O)(=O)[O-])[C@@H]1CNC(=O)c1coc(-c2cc(=O)c(O)cn2O)n1)c1csc(N)n1)C(=O)[O-].[Na+].[Na+]` [Example 17, 2-({[(1Z)-1-(2-amino-1,3-thiazol-4-yl)-2-({(2R,3S)-2-[({[2-(1,5-dihydroxy-4-oxo-1,4-dihydropyridin-2-yl)-1,3-oxazol-4-yl]carbonyl}amino)methyl]-4-oxo-1-sulfoazetidin-3-yl}amino)-2-oxoethylidene]amino}oxy)-2-methylpropanoic acid, bis sodium salt], the “AB-MBT … (MstRcn)” value in test [1] is 0.125 µg/mL. Also, the “AB-MBT: Klebsiella pneumoniae 1000-02: MIC (MstRcnt)” value in test [2] was determined as 1.00 µg/mL. In test [3], the “AB-MBT: Acinetobacter baumanii AB-3167: MIC (MstRcnt)” value was determined as 1.00 µg/mL.

In the case of `CC(C)(O/N=C(\C(=O)N[C@@H]1C(=O)N(S(=O)(=O)[O-])[C@@H]1CNC(=O)c1coc(-c2cc(=O)c(O)c[nH]2)n1)c1csc(N)n1)C(=O)[O-].[Na+].[Na+]` [Example 18, 2-({[(1Z)-1-(2-amino-1,3-thiazol-4-yl)-2-({(2R,3S)-2-[({[2-(5-hydroxy-4-oxo-1,4-dihydropyridin-2-yl)-1,3-oxazol-4-yl]carbonyl}amino)methyl]-4-oxo-1-sulfoazetidin-3-yl}amino)-2-oxoethylidene]amino}oxy)-2-methylpropanoic acid, bis sodium salt], in test [1], the “AB-MBT … (MstRcn)” value worked out at 0.250 µg/mL. In addition, the “AB-MBT: Klebsiella pneumoniae 1000-02: MIC (MstRcnt)” value in test [2] was 0.500 µg/mL. Further, the “AB-MBT: Acinetobacter baumanii AB-3167: MIC (MstRcnt)” value in test [3] turned out to be 1.00 µg/mL.

Regarding `CC(C)(O/N=C(\C(=O)N[C@@H]1C(=O)N(S(=O)(=O)O)[C@@H]1COC(=O)c1csc(-c2cc(=O)c(O)c[nH]2)n1)c1csc(N)n1)C(=O)O` [Example 19, 2-({[(1Z)-1-(2-amino-1,3-thiazol-4-yl)-2-({(2S,3S)-2-[({[2-(5-hydroxy-4-oxo-1,4-dihydropyridin-2-yl)-1,3-thiazol-4-yl]carbonyl}oxy)methyl]-4-oxo-1-sulfoazetidin-3-yl}amino)-2-oxoethylidene]amino}oxy)-2-methylpropanoic acid], the MIC in test [1] stood at 0.5 µg/mL (≈ 0.744 µM); in test [2] it was 1 µg/mL (≈ 1.49 µM); in test [3], 1 µg/mL (≈ 1.49 µM).

`CC(C)(O/N=C(\C(=O)N[C@@H]1C(=O)N(S(=O)(=O)O)[C@@H]1CNC(=O)c1csc(-c2cc(=O)c(O)c[nH]2)n1)c1csc(N)n1)C(=O)O` [Example 20, 2-({[(1Z)-1-(2-amino-1,3-thiazol-4-yl)-2-({(2R,3S)-2-[({[2-(5-hydroxy-4-oxo-1,4-dihydropyridin-2-yl)-1,3-thiazol-4-yl]carbonyl}amino)methyl]-4-oxo-1-sulfoazetidin-3-yl}amino)-2-oxoethylidene]amino}oxy)-2-methylpropanoic acid]: the MIC is 1 µg/mL (≈ 1.49 µM) in test [1], 0.5 µg/mL (≈ 0.746 µM) in test [2] and 1 µg/mL (≈ 1.49 µM) in test [3].

As to `CC(C)(O/N=C(\C(=O)N[C@@H]1C(=O)N(S(=O)(=O)O)[C@@H]1COC(=O)c1ccnc(-c2cc(=O)c(O)c[nH]2)n1)c1csc(N)n1)C(=O)O` [Example 21, 2-({[(1Z)-1-(2-amino-1,3-thiazol-4-yl)-2-({(2S,3S)-2-[({[2-(5-hydroxy-4-oxo-1,4-dihydropyridin-2-yl)pyrimidin-4-yl]carbonyl}oxy)methyl]-4-oxo-1-sulfoazetidin-3-yl}amino)-2-oxoethylidene]amino}oxy)-2-methylpropanoic acid], the minimal inhibitory concentration (MIC) in test [1] is 8 µg/mL (≈ 12 µM); in test [2] it was 64 µg/mL (≈ 96 µM); in test [3], above 64 µg/mL.

`CC(C)(O/N=C(\C(=O)N[C@@H]1C(=O)N(S(=O)(=O)O)[C@@H]1CNC(=O)c1ccnc(-c2cc(=O)c(O)c[nH]2)n1)c1csc(N)n1)C(=O)O` [Example 22, 2-({[(1Z)-1-(2-amino-1,3-thiazol-4-yl)-2-({(2R,3S)-2-[({[2-(5-hydroxy-4-oxo-1,4-dihydropyridin-2-yl)pyrimidin-4-yl]carbonyl}amino)methyl]-4-oxo-1-sulfoazetidin-3-yl}amino)-2-oxoethylidene]amino}oxy)-2-methylpropanoic acid]: the figures for the minimum inhibitory concentration (MIC) in test [1], in test [2] and in test [3] were 4 µg/mL (≈ 6.01 µM), 32 µg/mL (≈ 48.1 µM) and 16 µg/mL (≈ 24 µM), respectively.

As for `CC(C)(O/N=C(\C(=O)N[C@@H]1C(=O)N(S(=O)(=O)O)[C@@H]1CNC(=O)c1ccnc(-c2cc(=O)c(O)cn2O)n1)c1csc(N)n1)C(=O)O` [Example 23, 2-({[(1Z)-1-(2-amino-1,3-thiazol-4-yl)-2-({(2R,3S)-2-[({[2-(1,5-dihydroxy-4-oxo-1,4-dihydropyridin-2-yl)pyrimidin-4-yl]carbonyl}amino)methyl]-4-oxo-1-sulfoazetidin-3-yl}amino)-2-oxoethylidene]amino}oxy)-2-methylpropanoic acid], the results for the MIC in test [1], in test [2] and in test [3] were 1 µg/mL (≈ 1.47 µM), 0.25 µg/mL (≈ 0.367 µM) and 0.25 µg/mL (≈ 0.367 µM), respectively.
